# According to ChEMBL document CHEMBL1201862, “PubChem BioAssay data set” (2004):
#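 Growth conditions: 96-well plates. Treatment: test compound, 48 hours, 5 concentrations. Analysis: linear interpolation between bracketing concentrations; unreached endpoints set to highest concentration. Here, GI50 denotes the concentration required for 50% inhibition of growth.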 The source made the active and inactive calls. Cut-off read from the data, not from the text of the source: active = GI50 up to about 1.1 µM and inactive = higher.
# Legend:
# Assay in all cases: inhibition of tumour cell growth, NCI panel, 48 h
# HOP-92 = tested on: HOP-92
# HCT-15 = tested on: HCT-15
# UACC-62 = tested on: UACC-62
# ACHN = tested on: ACHN
# T47D = tested on: T47D
# M14 = tested on: M14
# MDA-MB-435 = tested on: MDA-MB-435
# IGROV-1 = tested on: IGROV-1
# BT-549 = tested on: BT-549
# UACC-257 = tested on: UACC-257
# SNB-75 = tested on: SNB-75
# UO-31 = tested on: UO-31
# 786-0 = tested on: 786-0
# LOX IMVI = tested on: LOX IMVI
# A549 = tested on: A549
# PC-3 = tested on: PC-3
# HOP-62 = tested on: HOP-62
# NCI-H460 = tested on: NCI-H460
# OVCAR-4 = tested on: OVCAR-4
# SF-268 = tested on: SF-268
# K562 = tested on: K562
# SK-MEL-5 = tested on: SK-MEL-5
# NCI-H522 = tested on: NCI-H522
# EKVX = tested on: EKVX
# SK-MEL-2 = tested on: SK-MEL-2
# OVCAR-8 = tested on: OVCAR-8
# RPMI-8226 = tested on: RPMI-8226
# Hs-578T = tested on: Hs-578T
# SF-539 = tested on: SF-539
# MOLT-4 = tested on: MOLT-4
# MCF7 = tested on: MCF7
# SK-MEL-28 = tested on: SK-MEL-28
# TK-10 = tested on: TK-10
# NCI-H23 = tested on: NCI-H23
# U-251 = tested on: U-251
# OVCAR-3 = tested on: OVCAR-3
# RXF 393 = tested on: RXF 393
# NCI/ADR-RES = tested on: NCI/ADR-RES
# COLO 205 = tested on: COLO 205
# MDA-N = tested on: MDA-N
# MDA-MB-231 = tested on: MDA-MB-231
# Malme-3M = tested on: Malme-3M
# SR = tested on: SR
# DU-145 = tested on: DU-145
# SN12C = tested on: SN12C
# KM12 = tested on: KM12
# SF-295 = tested on: SF-295
# HCT-116 = tested on: HCT-116
# OVCAR-5 = tested on: OVCAR-5
# A498 = tested on: A498
# CAKI-1 = tested on: CAKI-1
# HT-29 = tested on: HT-29
# HCC 2998 = tested on: HCC 2998
# SNB-19 = tested on: SNB-19
# SK-OV-3 = tested on: SK-OV-3
# SW-620 = tested on: SW-620
# CCRF-CEM = tested on: CCRF-CEM
# NCI-H226 = tested on: NCI-H226
# HL-60 = tested on: HL-60
smiles,measurement,setting,value
CC(C)Cn1cnc2c(SCc3ccc(Cl)cc3Cl)nc(N)nc21,GI50,HOP-92,26.2 µM (inactive)
same,GI50,HCT-15,16 µM
same,GI50,UACC-62,19.8 µM (inactive)
same,GI50,ACHN,20.6 µM (inactive)
same,GI50,T47D,13.5 µM (inactive)
same,GI50,M14,32.4 µM (inactive)
same,GI50,MDA-MB-435,32.3 µM (inactive)
same,GI50,IGROV-1,48.8 µM (inactive)
same,GI50,BT-549,29.2 µM (inactive)
same,GI50,UACC-257,15.5 µM (inactive)
same,GI50,SNB-75,42.8 µM (inactive)
same,GI50,UO-31,23.3 µM (inactive)
same,GI50,786-0,23.9 µM (inactive)
same,GI50,LOX IMVI,18.7 µM (inactive)
same,GI50,A549,25.1 µM (inactive)
same,GI50,PC-3,16.5 µM (inactive)
same,GI50,HOP-62,49.7 µM (inactive)
same,GI50,NCI-H460,12 µM (inactive)
same,GI50,OVCAR-4,59.2 µM (inactive)
same,GI50,SF-268,34.8 µM (inactive)
same,GI50,K562,11.7 µM (inactive)
same,GI50,SK-MEL-5,10 µM (inactive)
same,GI50,NCI-H522,14.6 µM (inactive)
same,GI50,EKVX,14.5 µM (inactive)
same,GI50,SK-MEL-2,32.4 µM (inactive)
same,GI50,OVCAR-8,27.7 µM (inactive)
same,GI50,RPMI-8226,10.1 µM (inactive)
same,GI50,Hs-578T,44.8 µM (inactive)
same,GI50,SF-539,15.8 µM (inactive)
same,GI50,MOLT-4,7.57 µM (inactive)
same,GI50,MCF7,18.3 µM (inactive)
same,GI50,SK-MEL-28,57.1 µM (inactive)
same,GI50,TK-10,23.1 µM (inactive)
same,GI50,NCI-H23,26.1 µM (inactive)
same,GI50,U-251,27.5 µM (inactive)
same,GI50,OVCAR-3,48.5 µM (inactive)
same,GI50,RXF 393,17.9 µM (inactive)
same,GI50,NCI/ADR-RES,26.5 µM (inactive)
same,GI50,COLO 205,11.5 µM (inactive)
same,GI50,MDA-N,41.1 µM (inactive)
same,GI50,MDA-MB-231,39.1 µM (inactive)
same,GI50,Malme-3M,26.4 µM (inactive)
same,GI50,SR,4.38 µM (inactive)
same,GI50,DU-145,> 100 µM (inactive)
same,GI50,SN12C,47.3 µM (inactive)
same,GI50,KM12,27.2 µM (inactive)
same,GI50,SF-295,23.3 µM (inactive)
same,GI50,HCT-116,23.2 µM (inactive)
same,GI50,OVCAR-5,37.8 µM (inactive)
same,GI50,A498,16.1 µM (inactive)
same,GI50,CAKI-1,49 µM (inactive)
same,GI50,HT-29,27 µM (inactive)
same,GI50,HCC 2998,13.9 µM (inactive)
same,GI50,SNB-19,44.3 µM (inactive)
same,GI50,SK-OV-3,> 100 µM (inactive)
same,GI50,SW-620,25.3 µM (inactive)
O=C(CN1C(=O)c2ccccc2C1=O)NC1(C(=O)O)CCCC1,GI50,HCT-15,> 100 µM
same,GI50,UACC-62,> 100 µM (inactive)
same,GI50,ACHN,> 100 µM (inactive)
same,GI50,T47D,> 100 µM (inactive)
same,GI50,M14,> 100 µM (inactive)
same,GI50,MDA-MB-435,> 100 µM (inactive)
same,GI50,IGROV-1,> 100 µM (inactive)
same,GI50,BT-549,> 100 µM (inactive)
same,GI50,UACC-257,> 100 µM (inactive)
same,GI50,SNB-75,> 100 µM (inactive)
same,GI50,UO-31,> 100 µM (inactive)
same,GI50,786-0,> 100 µM (inactive)
same,GI50,LOX IMVI,> 100 µM (inactive)
same,GI50,A549,> 100 µM (inactive)
same,GI50,PC-3,> 100 µM (inactive)
same,GI50,HOP-62,> 100 µM (inactive)
same,GI50,OVCAR-4,> 100 µM (inactive)
same,GI50,SF-268,> 100 µM (inactive)
same,GI50,K562,> 100 µM (inactive)
same,GI50,CCRF-CEM,> 100 µM (inactive)
same,GI50,NCI-H226,> 100 µM (inactive)
same,GI50,SK-MEL-5,> 100 µM (inactive)
same,GI50,NCI-H522,> 100 µM (inactive)
same,GI50,EKVX,> 100 µM (inactive)
same,GI50,SK-MEL-2,> 100 µM (inactive)
same,GI50,OVCAR-8,> 100 µM (inactive)
same,GI50,RPMI-8226,> 100 µM (inactive)
same,GI50,Hs-578T,> 100 µM (inactive)
same,GI50,MOLT-4,> 100 µM (inactive)
same,GI50,MCF7,> 100 µM (inactive)
same,GI50,SK-MEL-28,> 100 µM (inactive)
same,GI50,TK-10,> 100 µM (inactive)
same,GI50,NCI-H23,> 100 µM (inactive)
same,GI50,U-251,> 100 µM (inactive)
same,GI50,OVCAR-3,> 100 µM (inactive)
same,GI50,HL-60,> 100 µM (inactive)
same,GI50,RXF 393,> 100 µM (inactive)
same,GI50,NCI/ADR-RES,> 100 µM (inactive)
same,GI50,COLO 205,> 100 µM (inactive)
same,GI50,MDA-N,> 100 µM (inactive)
same,GI50,MDA-MB-231,> 100 µM (inactive)
same,GI50,Malme-3M,> 100 µM (inactive)
same,GI50,SR,> 100 µM (inactive)
same,GI50,DU-145,> 100 µM (inactive)
same,GI50,SN12C,> 100 µM (inactive)
same,GI50,KM12,> 100 µM (inactive)
same,GI50,SF-295,> 100 µM (inactive)
same,GI50,HCT-116,> 100 µM (inactive)
same,GI50,OVCAR-5,> 100 µM (inactive)
same,GI50,A498,> 100 µM (inactive)
same,GI50,CAKI-1,> 100 µM (inactive)
same,GI50,HT-29,> 100 µM (inactive)
same,GI50,HCC 2998,> 100 µM (inactive)
same,GI50,SNB-19,> 100 µM (inactive)
same,GI50,SK-OV-3,> 100 µM (inactive)
same,GI50,SW-620,> 100 µM (inactive)
Cc1ccc(S(=O)(=O)N/N=C2/CC3CCC4CC2CC34)cc1 (centres undefined),GI50,HOP-92,> 100 µM (inactive)
same,GI50,HCT-15,> 100 µM
same,GI50,UACC-62,> 100 µM (inactive)
same,GI50,ACHN,> 100 µM (inactive)
same,GI50,T47D,81.1 µM (inactive)
same,GI50,M14,> 100 µM (inactive)
same,GI50,MDA-MB-435,> 100 µM (inactive)
same,GI50,IGROV-1,> 100 µM (inactive)
same,GI50,BT-549,> 100 µM (inactive)
same,GI50,UACC-257,> 100 µM (inactive)
same,GI50,SNB-75,> 100 µM (inactive)
same,GI50,UO-31,25.4 µM (inactive)
same,GI50,786-0,> 100 µM (inactive)
same,GI50,LOX IMVI,> 100 µM (inactive)
same,GI50,A549,> 100 µM (inactive)
same,GI50,PC-3,> 100 µM (inactive)
same,GI50,HOP-62,> 100 µM (inactive)
same,GI50,NCI-H460,> 100 µM (inactive)
same,GI50,SF-268,> 100 µM (inactive)
same,GI50,K562,93.5 µM (inactive)
same,GI50,CCRF-CEM,> 100 µM (inactive)
same,GI50,NCI-H226,> 100 µM (inactive)
same,GI50,SK-MEL-5,84.7 µM (inactive)
same,GI50,NCI-H522,> 100 µM (inactive)
same,GI50,EKVX,61.5 µM (inactive)
same,GI50,SK-MEL-2,> 100 µM (inactive)
same,GI50,OVCAR-8,> 100 µM (inactive)
same,GI50,RPMI-8226,> 100 µM (inactive)
same,GI50,Hs-578T,88.3 µM (inactive)
same,GI50,SF-539,> 100 µM (inactive)
same,GI50,MOLT-4,> 100 µM (inactive)
same,GI50,MCF7,> 100 µM (inactive)
same,GI50,SK-MEL-28,> 100 µM (inactive)
same,GI50,TK-10,> 100 µM (inactive)
same,GI50,NCI-H23,> 100 µM (inactive)
same,GI50,U-251,> 100 µM (inactive)
same,GI50,OVCAR-3,> 100 µM (inactive)
same,GI50,HL-60,> 100 µM (inactive)
same,GI50,NCI/ADR-RES,> 100 µM (inactive)
same,GI50,COLO 205,55 µM (inactive)
same,GI50,MDA-N,> 100 µM (inactive)
same,GI50,MDA-MB-231,> 100 µM (inactive)
same,GI50,Malme-3M,> 100 µM (inactive)
same,GI50,SR,> 100 µM (inactive)
same,GI50,DU-145,> 100 µM (inactive)
same,GI50,SN12C,> 100 µM (inactive)
same,GI50,KM12,> 100 µM (inactive)
same,GI50,SF-295,> 100 µM (inactive)
same,GI50,HCT-116,> 100 µM (inactive)
same,GI50,OVCAR-5,> 100 µM (inactive)
same,GI50,A498,> 100 µM (inactive)
same,GI50,CAKI-1,> 100 µM (inactive)
same,GI50,HT-29,> 100 µM (inactive)
same,GI50,HCC 2998,> 100 µM (inactive)
same,GI50,SNB-19,> 100 µM (inactive)
same,GI50,SK-OV-3,> 100 µM (inactive)
same,GI50,SW-620,> 100 µM (inactive)
